Consider one compound from patent publication US12685751B2, “Methods for gene modification of hematopoietic cells” (Centro de Investigaciones Energéticas, Medioambientales y …, priority 2018, dated 2026).

The subject of experiment [1] is hematopoietic cells. Briefly: CFC/CFU assay: percent transduction analysed in single colonies. It is filed as cell-based. As for the experimental part: “Transduction efficiency” refers to the percentage of cells transduced with at least one provirus copy. For example if 1×10^6 cells are exposed to a virus and 0.5×10^6 cells are determined to have a least one copy of a virus in their genome, then the transduction efficiency is 50%. An illustrative method for determining transduction efficiency is flow cytometry.
As used herein, “CFC” refers to colony forming cells. The colony forming cell (CFC) assay is used to study the proliferation and differentiation pattern of hematopoietic progenitors by their ability to form colonies in a semisolid medium. The number and the morphology of the colonies formed by a fixed number of input cells provide preliminary information about the ability of progenitors to differentiate and proliferate. Exemplary assays are provided in Sarma et al. Colony forming cell (CFC) assay for human hematopoietic cells. J Vis Exp. 2010 Dec. 18; (46). […]
(§1) In another experiment, cells were transduced with either 1×10^7 TU/mL or 1×10^8 TU/mL of lentiviral vector in liquid culture in the presence of PGE2, and assayed for VCN determination after 14 days in liquid culture (FIG. 2B). […] A colony forming units (CFUs) assay was performed with transduced cells (FIG. 3A, CFCs=colony-forming cells), and VCN and percent (%) transduction were analyzed in single colonies (FIGS. 3B and 3C). […]

Experiment [2] relates to CD34+ cells. As to conditions: ex vivo culture of CD34+ cells; Heffner et al. 2018; cited from earlier work.
For experiment [3], the system named is hematopoietic cells. Briefly: VCN determination after 14 days in liquid culture of cells transduced with lentiviral vector. It is filed as cell-based. The following applies: 4 μg/mL protamine sulfate in media, 14 days liquid culture. As for the experimental part: “Vector copy number” or “VCN” refers to the number of copies of vector in a sample divided by the number of cells. Generally the number of copies of vector is determined by quantitative polymerase chain reaction (qPCR) using a probe against the Psi sequence of the integrated provirus, and the number of cells is determined by qPCR using a probe against a human housekeeping gene for which there will be two copies per cell (one per chromosome).
An illustrative protocol for transduction of hematopoietic cells with lentiviral vectors as performed in the examples that follow is provided in FIG. 1, although in various experiments described in the examples, the transduction media included no TE, a single TE, or various combinations of TEs. Pre-stimulation included culturing the cells on plates coated with 2 ug/cm^2 RetroNectin™ (RN). […]
as §1

`CCCCC(C)(C)[C@H](O)/C=C/[C@H]1[C@H](O)CC(=O)[C@@H]1C/C=C\CCCC(=O)O`: the “percent (%) transduction, cells transduced” value in experiment [1] (highest tested concentration of PGE2, single colonies, FIG. 3C) is on record as “up to 75%”; in experiment [1] (highest tested concentration, Example 2 (poloxamer F108 / LentiBOOST), FIG. 5C), “up to 75%”. The “level of lentiviral transgene delivery” value in experiment [2] is given as “increase the level of lentiviral transgene delivery”. The “transduction efficiency as determined by VCN/cell” value in experiment [3] (1×10^7 or 1×10^8 TU/mL lentiviral vector, FIG. 2B) is “increased transduction efficiency”. Moreover, the “transduction efficiency as measured by vector copy numbers/cell” value in experiment [3] (PGE2 10, 30 or 50 μg/mL, 2.5×10^7 or 5×10^7 TU/mL VSVG-pseudotyped GFP LV, FIG. 2A) is listed as “increase transduction efficiency”.
